Experimental data reported in patent US10966426B2, “Herbicidal compositions comprising phenylpyrimidines” (BASF SE, priority 2016, dated 2021).

Experiments:
Type in all cases: in vivo
Galium aparine = experiment: greenhouse post-emergence treatment, GALAP; conditions: Galium aparine, 480 h, 20 DAT, GALAP
In short: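 Foliar application to greenhouse-grown plants 3–15 cm tall in humus-containing loamy sand; response assessed on a 0–100 scale after 2–4 weeks, with Colby's E=X+Y−(X·Y/100) as the additive expectation.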

Ambrosia elatior = experiment: greenhouse post-emergence treatment, AMBEL; conditions: 20 DAT, AMBEL; for % activity: solo, WG 70%
In short: (§1)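 Loamy sand, ~3.0% humus; species sown separately; treated at 3–15 cm height; 10% w/w EC diluted in water; 10-25° C./20-35° C. per species; 2–4 wk; visual 0–100 rating.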

Polygonum convolvulus = experiment: greenhouse pre-emergence treatment, POLCO; conditions: Fallopia convolvulus, 480 h, 20 DAT, POLCO
In short: (§2)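 Damage rated on 0 to 100 scale (0 = normal growth, 100 = no emergence or total above-ground kill) after 2-4 weeks at species-dependent 10-25° C or 20-35° C. Seeds sown per species in loamy sand, ~3.0% humus, treated right after sowing with aqueous spray of single actives or 10% emulsion-concentrate mixtures, then hooded; additive expectation by Colby.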

Stellaria media = experiment: greenhouse post-emergence treatment, STEME; conditions: Stellaria media, 480 h, 20 DAT, STEME, metribuzin WG 70% solo 35 gai/ha
In short: as §1

Poa annua = experiment: greenhouse post-emergence treatment, POAAN; conditions: Poa annua, 480 h, 20 DAT, POAAN
In short: as §1

Setaria viridis = experiment: greenhouse pre-emergence treatment, SETVI; conditions: solo, WG 70%, SETVI, 31.25 gai/ha, 20 DAT
In short: as §2

Digitaria sanguinalis = experiment: greenhouse post-emergence treatment, DIGSA; conditions: Digitaria sanguinalis, 480 h, 20 DAT, DIGSA
In short: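 Visual damage score 0–100 (0 = normal growth; 100 = no emergence/above-ground parts destroyed), read 2–4 wk post-treatment. Loamy sand, ~3.0% humus; seedlings grown in place or transplanted days before spraying; water as solvent; 10-25° C. or 20-35° C. per species. Combination expectations by Colby: E=X+Y−(X·Y/100).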

Echinocloa crus-galli = experiment: greenhouse pre-emergence treatment, ECHCG; conditions: 20 DAT; for % activity: solo, WG 70%
In short: as §2

Helianthus annuus [1] = experiment: greenhouse pre-emergence treatment, HELAN; conditions: Helianthus annuus, 480 h, 20 DAT, HELAN
In short: as §2

Brachiaria decumbens = experiment: greenhouse pre-emergence treatment, BRADC; conditions: Urochloa decumbens, 480 h, solo, WG 70%, BRADC, 62.5 gai/ha, 20 DAT
In short: as §2

Helianthus annuus [2] = experiment: greenhouse post-emergence treatment, HELAN; conditions: Helianthus annuus, 480 h, 20 DAT, HELAN, metribuzin WG 70% solo 35 gai/ha
Protocol: The culture containers used were plastic pots containing loamy sand with approximately 3.0% of humus as substrate. The seeds of the test plants were sown separately for each species.
For the post-emergence treatment, the test plants were grown to a plant height of from 3 to 15 cm, depending on the plant habit, and only then treated with the active compounds which had been suspended or emulsified in water. To this end, the test plants were either sown directly, and grown in the same containers, or they were first grown separately as seedlings and transplanted into the test containers a few days prior to treatment.
Depending on the species, the plants were kept at 10-25° C. and 20-35° C., respectively.
The test period extended over 2 to 4 weeks. During this time, the plants were tended and their response to the individual treatments was evaluated.
Evaluation was carried out using a scale from 0 to 100. 100 means no emergence of the plants, or complete destruction of at least the above-ground parts, and 0 means no damage or normal course of growth. A good herbicidal activity is given at values of at least 70, and very good herbicidal activity is given at values of at least 85.
The respective stated components A and B, and if appropriate, C were formulated as a 10% by weight strength emulsion concentrate and, with addition of the amount of solvent system, introduced into the spray liquor used for applying the active compound. In the examples, the solvent used was water.
In the examples below, using the method of S. R. Colby (1967) “Calculating synergistic and antagonistic responses of herbicide combinations”, Weeds 15, p. 22ff., the value E, which is expected if the activity of the individual active compounds is only additive, was calculated. E=X+Y−(X·Y/100) where X=effect in percent using herbicide A at an application rate a; • Y=effect in percent using herbicide B at application rate b; • E=expected effect (in %) of herbicide A+herbicide B at application rates a+b.

[3] = metribuzin WG 70% solo 17.5 gai/ha
[4] = metribuzin WG 70% solo 35 gai/ha
[5] = metribuzin WG 70% solo 125 gai/ha, read-out: % activity

CSc1nnc(C(C)(C)C)c(=O)n1N [metribuzin]
inhibition at 17.5 g/ha (Galium aparine; [3]): 0%
inhibition at 35 g/ha (Galium aparine; [4]): 0%
inhibition at 70 g/ha (Galium aparine; metribuzin WG 70% solo 70 gai/ha): 0%
inhibition at 140 g/ha (Galium aparine; metribuzin WG 70% solo 140 gai/ha): 0%
pest or weed control at 35 g/ha (Galium aparine; solo, WG 70%, 35 gai/ha): 0%
pest or weed control at 70 g/ha (Galium aparine; solo, WG 70%, 70 gai/ha): 0%
pest or weed control at 140 g/ha (Galium aparine; solo, WG 70%, 140 gai/ha): 0%
inhibition at 17.5 g/ha (Ambrosia elatior; Ambrosia artemisiifolia, 480 h, metribuzin WG 70% solo 17.5 gai/ha): 0%
inhibition at 35 g/ha (Ambrosia elatior; Ambrosia artemisiifolia, 480 h, metribuzin WG 70% solo 35 gai/ha): 0%
inhibition at 70 g/ha (Ambrosia elatior; Ambrosia artemisiifolia, 480 h, metribuzin WG 70% solo 70 gai/ha): 0%
inhibition at 140 g/ha (Ambrosia elatior; Ambrosia artemisiifolia, 480 h, metribuzin WG 70% solo 140 gai/ha): 70%
% activity (Ambrosia elatior; 17.5 gai/ha): 0%
% activity (Ambrosia elatior; 35 gai/ha): 0%
% activity (Ambrosia elatior; 70 gai/ha): 0%
inhibition at 62.5 g/ha (Polygonum convolvulus; metribuzin WG 70% solo 62.5 gai/ha, read-out: % activity): 0%
inhibition at 125 g/ha (Polygonum convolvulus; [5]): 0%
inhibition at 250 g/ha (Polygonum convolvulus; metribuzin WG 70% solo 250 gai/ha, read-out: % activity): 0%
pest or weed control at 62.5 g/ha (Polygonum convolvulus; solo, WG 70%, 62.5 gai/ha): 0%
pest or weed control at 125 g/ha (Polygonum convolvulus; solo, WG 70%, 125 gai/ha): 0%
inhibition at 35 g/ha (Stellaria media): 80%
inhibition at 17.5 g/ha (Poa annua; [3]): 60%
inhibition at 35 g/ha (Poa annua; [4]): 70%
pest or weed control at 17.5 g/ha (Poa annua; solo, WG 70%, 17.5 gai/ha): 60%
% activity (Setaria viridis): 0%
inhibition at 17.5 g/ha (Digitaria sanguinalis; [3]): 0%
inhibition at 35 g/ha (Digitaria sanguinalis; [4]): 35%
pest or weed control at 17.5 g/ha (Digitaria sanguinalis; solo, WG 70%, 17.5 gai/ha): 0%
pest or weed control at 35 g/ha (Digitaria sanguinalis; solo, WG 70%, 35 gai/ha): 35%
pest or weed control at 140 g/ha (Digitaria sanguinalis; solo, WG 70%, 140 gai/ha): 85%
inhibition at 62.5 g/ha (Echinocloa crus-galli; Echinochloa crus-galli, 480 h, metribuzin WG 70% solo 62.5 gai/ha): 30%
% activity (Echinocloa crus-galli; 31.25 gai/ha): 0%
% activity (Echinocloa crus-galli; 62.5 gai/ha): 30%
inhibition at 62.5 g/ha (Helianthus annuus [1]; metribuzin WG 70% solo 62.5 gai/ha): 0%
inhibition at 125 g/ha (Helianthus annuus [1]; [5]): 0%
inhibition at 250 g/ha (Helianthus annuus [1]; metribuzin WG 70% solo 250 gai/ha): 50%
plant injury at 31.25 g/ha (Helianthus annuus [1]; solo, WG 70%, 31.25 gai/ha): 0%
plant injury at 62.5 g/ha (Helianthus annuus [1]; solo, WG 70%, 62.5 gai/ha): 0%
plant injury at 250 g/ha (Helianthus annuus [1]; solo, WG 70%, 250 gai/ha): 50%
pest or weed control at 62.5 g/ha (Brachiaria decumbens): 0%
inhibition at 35 g/ha (Helianthus annuus [2]): 70%
